US20260138961A1, “MODULATORS OF MITOCHONDRIAL DNA REPLICATION” (Pretzel Therapeutics, Inc., priority 2022, published 2026)

target: T1, POLγA:R309C (Homo sapiens, UniProt P54098, R309C); test: DNA polymerization assay, POLγA:R309C mutant; format: biochemical; conditions: stimulation of polymerase activity, primed M13mp18 ssDNA, 37° C. 2 hours
T1 sequence (P54098 1-1239 R309C): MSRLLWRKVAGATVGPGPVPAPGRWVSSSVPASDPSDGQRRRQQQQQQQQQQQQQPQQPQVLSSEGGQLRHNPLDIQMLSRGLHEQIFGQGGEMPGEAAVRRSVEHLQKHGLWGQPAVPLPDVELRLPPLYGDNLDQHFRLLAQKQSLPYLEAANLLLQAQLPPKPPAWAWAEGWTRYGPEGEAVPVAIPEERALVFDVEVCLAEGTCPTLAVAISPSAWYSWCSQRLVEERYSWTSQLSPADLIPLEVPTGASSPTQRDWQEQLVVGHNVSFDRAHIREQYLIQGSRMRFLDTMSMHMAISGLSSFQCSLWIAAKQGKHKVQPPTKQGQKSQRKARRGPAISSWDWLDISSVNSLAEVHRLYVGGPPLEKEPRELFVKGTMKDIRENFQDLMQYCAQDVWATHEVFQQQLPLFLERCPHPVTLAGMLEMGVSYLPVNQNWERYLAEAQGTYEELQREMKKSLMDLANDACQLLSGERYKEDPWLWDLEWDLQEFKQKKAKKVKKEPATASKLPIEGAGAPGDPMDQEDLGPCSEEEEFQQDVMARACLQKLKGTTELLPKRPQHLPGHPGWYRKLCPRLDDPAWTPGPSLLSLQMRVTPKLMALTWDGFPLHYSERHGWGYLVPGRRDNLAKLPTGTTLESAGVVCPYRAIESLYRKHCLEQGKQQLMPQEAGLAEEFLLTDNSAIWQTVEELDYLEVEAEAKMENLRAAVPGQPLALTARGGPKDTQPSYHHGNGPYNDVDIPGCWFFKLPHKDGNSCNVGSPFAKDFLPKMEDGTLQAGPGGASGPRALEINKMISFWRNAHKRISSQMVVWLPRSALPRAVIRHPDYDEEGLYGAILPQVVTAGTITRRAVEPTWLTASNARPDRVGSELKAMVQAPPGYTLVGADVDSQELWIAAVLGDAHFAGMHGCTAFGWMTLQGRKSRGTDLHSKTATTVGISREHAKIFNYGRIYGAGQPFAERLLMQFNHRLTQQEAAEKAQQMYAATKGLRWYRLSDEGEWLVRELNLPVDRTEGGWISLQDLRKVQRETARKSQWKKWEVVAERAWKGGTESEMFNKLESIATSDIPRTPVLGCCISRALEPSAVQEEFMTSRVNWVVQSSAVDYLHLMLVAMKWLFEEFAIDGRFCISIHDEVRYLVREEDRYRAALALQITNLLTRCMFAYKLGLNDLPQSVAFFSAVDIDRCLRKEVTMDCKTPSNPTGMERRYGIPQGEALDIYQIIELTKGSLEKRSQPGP
T1 sequence (Q9UHN1 1-485 partner): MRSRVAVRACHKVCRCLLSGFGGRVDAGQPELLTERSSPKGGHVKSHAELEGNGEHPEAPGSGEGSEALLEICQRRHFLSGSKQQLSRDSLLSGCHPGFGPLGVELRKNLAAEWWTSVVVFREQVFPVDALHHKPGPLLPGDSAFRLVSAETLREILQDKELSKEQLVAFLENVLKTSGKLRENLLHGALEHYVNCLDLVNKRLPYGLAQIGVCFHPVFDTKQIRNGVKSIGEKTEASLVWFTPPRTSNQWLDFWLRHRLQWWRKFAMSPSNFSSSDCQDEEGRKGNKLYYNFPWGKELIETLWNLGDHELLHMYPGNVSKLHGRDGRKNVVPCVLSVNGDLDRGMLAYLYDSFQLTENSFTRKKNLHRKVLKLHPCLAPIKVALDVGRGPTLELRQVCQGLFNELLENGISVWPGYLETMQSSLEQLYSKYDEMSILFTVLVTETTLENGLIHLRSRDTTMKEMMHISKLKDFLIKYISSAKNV
Experimental: DNA Polymerization Assay to Monitor Effects on Human Wildtype POLγ and Four Disease-Causing Mutant Variants of Human POLγ.
The ability of small molecules to stimulate the polymerase activity of POLγ was analyzed in a quantitative fluorescence SYBR Green I assay with fluorescence intensity (FI) readout.
In the presence of dNTPs, wild type human POLγ and mutant derivatives thereof were incubated with single-stranded, circular M13mp18 ssDNA hybridized to a short DNA oligonucleotide that functions as a primer for initiation of DNA synthesis. POLγ and mutant derivatives thereof will extend the primer and use the M13mp18 molecule as a template to synthesize long stretches of double-stranded DNA. SYBR Green I, which is a double-stranded DNA-binding dye, was used to quantify formation of double-stranded DNA in the reaction. When bound to double-stranded DNA, SYBR Green I fluorescence increases by up to 100-fold.
The assay was performed in the 384-well plate format. Upon addition of compounds, changes in double-stranded DNA synthesis activity can be monitored by following effects on fluorescent intensity.
The reactions also contained the accessory POLγB subunit, and the human mitochondrial single-stranded DNA binding protein (mtSSB).
The DNA template mixture used in the assay contained 0.5 nM primed M13 mp18 ssDNA, 400 nM mtSSB, 0.1 mM Tris-HCl (pH 8.0), 0.1 mM dNTP, 10 mM MgCl2, 0.1 mg/mL BSA, 1 mM TCEP solution, and 0.02% Triton X-100. The DNA template mixture for the wild type protein contained either 100 μM dNTP, 1 μM dNTP, or 0.1 μM dNTP, designated in Table 2 as 100 μM, 1 μM, and 0.1 μM, respectfully.
Microplates with compounds (0.1 μL in each well) to be tested in the assay were prepared from 10 mM compound stocks in 100% DMSO, and equal amounts of DMSO without any compound were added to positive and negative control wells.
The protein mixture was dispensed (5 μL into each well) into compound plates and incubated at 37° C. for 15 minutes. After incubation, 5 μL of the DNA template mixture was dispensed into each well. The plates were then incubated at 37° C. for 2 hours.
During incubation, a combined stop buffer and detection reagent solution was prepared. The buffer contained 25 mM EDTA (pH 8.0), 0.02% Triton X-100, and SYBR Green I [Invitrogen] diluted 10,000× (for fluorescent readout). EDTA will stop the enzymatic reaction by chelating magnesium ions.

SMILES | AC50
Cc1csc(-c2cccc(NS(=O)(=O)c3cc(C)c(Cl)cc3C)c2)n1 [Example 20, 4-chloro-2,5-dimethyl-N-(3-(4-methylthiazol-2-yl)phenyl)benzenesulfonamide] | 1000 nM
Cc1cnc(-c2cccc(NS(=O)(=O)c3cc(C)c(Cl)cc3C)c2)s1 [Example 21, 4-chloro-2,5-dimethyl-N-(3-(5-methylthiazol-2-yl)phenyl)benzenesulfonamide] | 1000 nM
Cc1ccc(C)c(S(=O)(=O)Nc2cccc(-c3nccs3)c2)c1 [Example 60] | 900 nM
Cc1cc(S(=O)(=O)Nc2cccc(-c3cc(C4CC4)[nH]n3)c2)c(C)cc1Cl [Example 64, 4-chloro-N-(3-(5-cyclopropyl-1H-pyrazol-3-yl)phenyl)-2,5-dimethylbenzenesulfonamide] | 1000 nM
CC[C@@H]1CCCN1C(=O)c1cccc(NS(=O)(=O)c2cc(C)c(Cl)cc2C)c1 [Example 65, (R)-4-chloro-N-(3-(2-ethylpyrrolidine-1-carbonyl)phenyl)-2,5-dimethylbenzenesulfonamide] | 5000 nM
Cc1cc(-c2cccc(NS(=O)(=O)c3cc(C)c(Cl)cc3C)c2)n[nH]1 [Example 66, 4-chloro-2,5-dimethyl-N-(3-(5-methyl-1H-pyrazol-3-yl)phenyl)benzenesulfonamide] | 12000 nM
Cc1cc(S(=O)(=O)Nc2cccc(-c3cc[nH]n3)c2)c(C)cc1Cl [Example 68, N-(3-(1H-pyrazol-3-yl)phenyl)-4-chloro-2,5-dimethylbenzenesulfonamide] | 7000 nM
Cc1cc(S(=O)(=O)Nc2ccc3ccn(C(C)C)c3c2)c(C)cc1Cl [Example 69, 4-chloro-N-(1-isopropyl-1H-indol-6-yl)-2,5-dimethylbenzenesulfonamide] | 1000 nM
Cc1nc2ccc(NS(=O)(=O)c3cc(C)c(Cl)cc3C)cc2o1 [Example 70, 4-chloro-2,5-dimethyl-N-(2-methylbenzo[d]oxazol-6-yl)benzenesulfonamide] | 51000 nM
Cc1cc2cc(NS(=O)(=O)c3cc(C)c(Cl)cc3C)ccc2[nH]1 [Example 184, 4-chloro-2,5-dimethyl-N-(2-methyl-1H-indol-5-yl)benzenesulfonamide] | 8000 nM
